Reference: PubChem BioAssay (NCI)
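Exposure lasted 48 hours, with cells grown in 96-well plates and compounds tested at five concentrations. Here, GI50 denotes the concentration required for 50% inhibition of growth. TGI marks complete inhibition of growth.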

Columns and labels:
Assay in all cases: inhibition of tumour cell growth, NCI panel, 48 h
NCI/ADR-RES ovarian = tested on: NCI/ADR-RES ovarian
TK-10 renal = tested on: TK-10 renal
UACC-257 melanoma = tested on: UACC-257 melanoma
HS 578T breast = tested on: HS 578T breast
NCI-H23 lung = tested on: NCI-H23 lung
SW-620 colon = tested on: SW-620 colon
CAKI-1 renal = tested on: CAKI-1 renal
K-562 leukemia = tested on: K-562 leukemia
DU-145 prostate = tested on: DU-145 prostate
786-0 renal = tested on: 786-0 renal
BT-549 breast = tested on: BT-549 breast
PC-3 prostate = tested on: PC-3 prostate
KM12 colon = tested on: KM12 colon
HCC-2998 colon = tested on: HCC-2998 colon
SK-MEL-2 melanoma = tested on: SK-MEL-2 melanoma
OVCAR-3 ovarian = tested on: OVCAR-3 ovarian
LOX IMVI melanoma = tested on: LOX IMVI melanoma
HOP-92 NSCLC = tested on: HOP-92 NSCLC
A498 renal = tested on: A498 renal
SK-MEL-5 melanoma = tested on: SK-MEL-5 melanoma
RPMI-8226 leukemia = tested on: RPMI-8226 leukemia
MDA-MB-435 = tested on: MDA-MB-435
SR leukemia = tested on: SR leukemia
SF-539 CNS = tested on: SF-539 CNS
EKVX NSCLC = tested on: EKVX NSCLC
UO-31 renal = tested on: UO-31 renal
SF-295 CNS = tested on: SF-295 CNS
OVCAR-5 ovarian = tested on: OVCAR-5 ovarian
SK-OV-3 ovarian = tested on: SK-OV-3 ovarian
NCI-H522 lung = tested on: NCI-H522 lung
M14 melanoma = tested on: M14 melanoma
OVCAR-4 ovarian = tested on: OVCAR-4 ovarian
A549 NSCLC = tested on: A549 NSCLC
HOP-62 NSCLC = tested on: HOP-62 NSCLC
CCRF-CEM leukemia = tested on: CCRF-CEM leukemia
ACHN renal = tested on: ACHN renal
HCT-116 colon = tested on: HCT-116 colon
RXF 393 renal = tested on: RXF 393 renal
MALME-3M melanoma = tested on: MALME-3M melanoma
U251 CNS = tested on: U251 CNS
SNB-75 CNS = tested on: SNB-75 CNS
HCT-15 colon = tested on: HCT-15 colon
MDA-MB-231 breast = tested on: MDA-MB-231 breast
SNB-19 CNS = tested on: SNB-19 CNS
SF-268 CNS = tested on: SF-268 CNS
MOLT-4 leukemia = tested on: MOLT-4 leukemia
SK-MEL-28 melanoma = tested on: SK-MEL-28 melanoma
COLO 205 colon = tested on: COLO 205 colon
UACC-62 melanoma = tested on: UACC-62 melanoma

With `Cc1ccc2ccc3ccc(C)nc3c2n1.Cc1ccc2ccc3ccc(C)nc3c2n1.Oc1c(Cl)cc(Cl)c2ccc(CN3CCCCC3)nc12.[Ru]` the GI50 (NCI/ADR-RES ovarian) was 2700 nM, the TGI (NCI/ADR-RES ovarian) was 7.99 µM and the GI50 (TK-10 renal) was 734 nM. It also gave a TGI (TK-10 renal) of 2070 nM, a GI50 (UACC-257 melanoma) of 350 nM and a TGI (UACC-257 melanoma) of 1230 nM. It also gave a GI50 (HS 578T breast) of 354 nM, a TGI (HS 578T breast) of 2320 nM and a GI50 (NCI-H23 lung) of 300 nM. For the same compound, the TGI (NCI-H23 lung) was 1130 nM, the GI50 (SW-620 colon) was 381 nM and the TGI (SW-620 colon) was 1610 nM. The GI50 (CAKI-1 renal) was 1430 nM, the TGI (CAKI-1 renal) was 2830 nM and the GI50 (K-562 leukemia) was 253 nM. For the same compound, the TGI (K-562 leukemia) was 1890 nM, the GI50 (DU-145 prostate) was 494 nM and the TGI (DU-145 prostate) was 4.91 µM. For the same compound, the GI50 (786-0 renal) was 542 nM, the TGI (786-0 renal) was 1780 nM and the GI50 (BT-549 breast) was 337 nM. For the same compound, the TGI (BT-549 breast) was 931 nM, the GI50 (PC-3 prostate) was 303 nM and the TGI (PC-3 prostate) was 1500 nM. For the same compound, the GI50 (KM12 colon) was 411 nM, the TGI (KM12 colon) was 1520 nM and the GI50 (HCC-2998 colon) was 414 nM. For the same compound, the TGI (HCC-2998 colon) was 1580 nM, the GI50 (SK-MEL-2 melanoma) was 613 nM and the TGI (SK-MEL-2 melanoma) was 1840 nM. For the same compound, the GI50 (OVCAR-3 ovarian) was 387 nM, the TGI (OVCAR-3 ovarian) was 1380 nM and the GI50 (LOX IMVI melanoma) was 341 nM. The TGI (LOX IMVI melanoma) was 1230 nM, the GI50 (HOP-92 NSCLC) was 109 nM and the TGI (HOP-92 NSCLC) was 835 nM. It also gave a GI50 (A498 renal) of 1760 nM, a TGI (A498 renal) of 4.02 µM and a GI50 (SK-MEL-5 melanoma) of 675 nM. The TGI (SK-MEL-5 melanoma) was 1860 nM, the GI50 (RPMI-8226 leukemia) was 223 nM and the TGI (RPMI-8226 leukemia) was 876 nM. The GI50 (MDA-MB-435) was 333 nM, the TGI (MDA-MB-435) was 1230 nM and the GI50 (SR leukemia) was 345 nM. The TGI (SR leukemia) was 1750 nM, the GI50 (SF-539 CNS) was 366 nM and the TGI (SF-539 CNS) was 1290 nM. It also gave a GI50 (EKVX NSCLC) of 363 nM, a TGI (EKVX NSCLC) of 2210 nM and a GI50 (UO-31 renal) of 1720 nM. The TGI (UO-31 renal) was 3.88 µM, the GI50 (SF-295 CNS) was 286 nM and the TGI (SF-295 CNS) was 1160 nM. The GI50 (OVCAR-5 ovarian) was 599 nM, the TGI (OVCAR-5 ovarian) was 3.01 µM and the GI50 (SK-OV-3 ovarian) was 293 nM. The TGI (SK-OV-3 ovarian) was 1070 nM, the GI50 (NCI-H522 lung) was 363 nM and the TGI (NCI-H522 lung) was 2130 nM. For the same compound, the GI50 (M14 melanoma) was 383 nM, the TGI (M14 melanoma) was 1440 nM and the GI50 (OVCAR-4 ovarian) was 362 nM. The TGI (OVCAR-4 ovarian) was 1840 nM, the GI50 (A549 NSCLC) was 326 nM and the TGI (A549 NSCLC) was 1280 nM. The GI50 (HOP-62 NSCLC) was 409 nM, the TGI (HOP-62 NSCLC) was 1410 nM and the GI50 (CCRF-CEM leukemia) was 423 nM. For the same compound, the TGI (CCRF-CEM leukemia) was 2200 nM, the GI50 (ACHN renal) was 1650 nM and the TGI (ACHN renal) was 3.23 µM. It also gave a GI50 (HCT-116 colon) of 247 nM, a TGI (HCT-116 colon) of 1230 nM and a GI50 (RXF 393 renal) of 714 nM. For the same compound, the TGI (RXF 393 renal) was 1990 nM, the GI50 (MALME-3M melanoma) was 248 nM and the TGI (MALME-3M melanoma) was 666 nM. For the same compound, the GI50 (U251 CNS) was 218 nM, the TGI (U251 CNS) was 1160 nM and the GI50 (SNB-75 CNS) was 243 nM. It also gave a TGI (SNB-75 CNS) of 1120 nM, a GI50 (HCT-15 colon) of 1280 nM and a TGI (HCT-15 colon) of 2770 nM. It also gave a GI50 (MDA-MB-231 breast) of 295 nM, a TGI (MDA-MB-231 breast) of 909 nM and a GI50 (SNB-19 CNS) of 331 nM. The TGI (SNB-19 CNS) was 1280 nM, the GI50 (SF-268 CNS) was 447 nM and the TGI (SF-268 CNS) was 2210 nM. It also gave a GI50 (MOLT-4 leukemia) of 461 nM, a TGI (MOLT-4 leukemia) of 2220 nM and a GI50 (SK-MEL-28 melanoma) of 513 nM. For the same compound, the TGI (SK-MEL-28 melanoma) was 1780 nM, the GI50 (COLO 205 colon) was 195 nM and the TGI (COLO 205 colon) was 429 nM. The GI50 (UACC-62 melanoma) was 445 nM and the TGI (UACC-62 melanoma) was 1670 nM.
